# Source: PubChem BioAssay (NCI)
#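 96-well plates; 48 h exposure; 5 concentrations. Endpoints by linear interpolation between flanking doses. Not reached: highest tested concentration assigned. TGI is the concentration that stops growth completely.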
# Test system: P388/ADR leukemia
# Assay: NCI tumour cell line growth inhibition, 48 h
smiles,measurement,value
O=C(NCCCCCCNC(=O)n1cc(F)c(=O)[nH]c1=O)NCCCOCCOCCOCCOCCOCCOCCOCCOCCOCCOCCOCCOCCOCCOCCOCCOCCOCCOCCOCCOCCOCCCNC(=O)C(O)C(O)C(O)C(O)CO (stereo unspecified),TGI,> 100 µM
